We go through five compounds from ChEMBL document CHEMBL1126492, “Cytotoxicity of ent-udoteatrial diacetate and its analogues” (Bioorg Med Chem Lett, 1993).

Converted amounts (≈) assume the structure as drawn.

For one test, the system named is KB. In words: In vitro cytotoxicity against human oral epidermoid carcinoma KB cell line. Format: functional, cell-based.
A further test deals with A549. Description: In vitro cytotoxicity against human lung carcinoma A-549 cell line. Format: functional, cell-based.

As to `CC(=O)O[C@H]1O[C@@H]2O[C@@H](OC(C)=O)[C@@H]3CC[C@H]([C@@H]1C)[C@H]23`, the IC50 with KB and in the test with A549 was more than 25 µg/mL in each case.
Regarding `CC(=O)O[C@@H]1O[C@@H]2O[C@@H](OC(C)=O)[C@@H]3CC[C@H]([C@H]1CC/C=C(\C)CCC=C(C)C)[C@H]23`, the concentration for half-maximal inhibition (IC50) in the test with KB stood at 1.6 µg/mL (≈ 3.8 µM); in the test with A549, 1.9 µg/mL (≈ 4.52 µM).
On the same counts, the results for `CC(=O)OC1O[C@@H]2O[C@@H](OC(C)=O)[C@@H]3CC[C@@H]([C@H]23)[C@H]1C` (stereo not given in full) are more than 25 µg/mL and more than 25 µg/mL.
Turning to `CC(=O)O[C@H]1O[C@@H]2O[C@@H](OC(C)=O)[C@@H]3CC[C@H]([C@@H]1CC/C=C(\C)CCC=C(C)C)[C@H]23`, the values for the IC50 in the test on KB and in the test with A549 were 3.4 µg/mL (≈ 8.08 µM) and 3.9 µg/mL (≈ 9.27 µM), respectively.
On the same counts, the results for `CC(=O)O[C@H]1O[C@@H]2O[C@@H](OC(C)=O)[C@@H]3CC[C@H]([C@H]1CC/C=C(\C)CCC=C(C)C)[C@H]23` are 0.4 µg/mL (≈ 0.951 µM) and 0.5 µg/mL (≈ 1.19 µM).

In general, IC50 refers to the concentration that inhibits the measured activity by half. Low values mean greater potency in that assay, high ones weaker potency in that assay.
